In the supplement of paper PMC10307832:

Legend:
Experiment in all cases: relative viability (nuclei count vs DMSO), 5 days (fraction); higher = more cells survive
Entinostat = compound: Nc1ccccc1NC(=O)c1ccc(CNC(=O)OCc2cccnc2)cc1 [Entinostat]
Summary of the method: (§1)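 Lung cancer cell lines in 1536-well plates were exposed by pinning to five library-drug doses (not always all listed) √10 apart, following an overnight hold at 37 °C. MetaXpress counted Hoechst-stained nuclei from 4× images taken after 5 days without medium change. Viability is the median ratio of treated-well to vehicle-well nuclei across plates. Plates required control CV below 25% and at least one doubling.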

[1] = compound: C1COCCN1C2=NC(=NC3=C2OC4=C3C=CC=N4)C5=CC(=CC=C5)NC(=O)C6=CN=C(C=C6)N
Summary of the method: as §1

SGI-1776 = compound: CN1CCC(CNc2ccc3ncc(-c4cccc(OC(F)(F)F)c4)n3n2)CC1 [SGI-1776]
Summary of the method: as §1

[2] = compound: C1COCCN1C2=NC(=NC3=C2OC4=C3C=CC=N4)C5=CC(=CC=C5)NC(=O)C6=CN=C(C=C6)N + CC(=O)Nc1cccc(-n2c(=O)n(C3CC3)c(=O)c3c(Nc4ccc(I)cc4F)n(C)c(=O)c(C)c32)c1 [Trametinib] (partner 0.02 µM)
Summary of the method: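 Lung cancer cell lines were pin-tool dosed in 1536-well plates on the day after seeding, with either a lone drug or a fixed anchor-drug dose plus five library-drug doses (not always all listed) in √10 steps. Nuclei were counted on 4× images after 5 days. Relative viability is the ratio of treated-well to vehicle-well nuclei counts, with each value a median of duplicate plates.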

COR-L23
relative viability (Entinostat; 0.02 µM): 1 | relative viability (Entinostat; 0.06325 µM): 1.02 | relative viability (Entinostat; 0.2 µM): 0.904 | relative viability (Entinostat; 0.6325 µM): 0.555 | relative viability (Entinostat; 2 µM): 0.227 | relative viability ([1]; 0.02 µM): 0.981 | relative viability ([1]; 0.06325 µM): 1.2 | relative viability ([1]; 0.2 µM): 1.18 | relative viability ([1]; 0.6325 µM): 1.09 | relative viability ([1]; 2 µM): 0.681 | relative viability (SGI-1776; 0.08 µM): 1.06 | relative viability (SGI-1776; 0.8 µM): 1.07 | relative viability (SGI-1776; 2.53 µM): 1.05 | relative viability (SGI-1776; 8 µM): 0.883 | relative viability ([2]; first compound 0.02 µM): 0.609 | relative viability ([2]; first compound 0.06325 µM): 0.669 | relative viability ([2]; first compound 0.2 µM): 0.663 | relative viability ([2]; first compound 0.6325 µM): 0.593 | relative viability ([2]; first compound 2 µM): 0.469

EMC-BAC-2
relative viability (Entinostat; 0.02 µM): 1.18 | relative viability (Entinostat; 0.06325 µM): 0.965 | relative viability (Entinostat; 0.2 µM): 0.91 | relative viability (Entinostat; 0.6325 µM): 0.598 | relative viability (Entinostat; 2 µM): 0.398 | relative viability ([1]; 0.02 µM): 1.05 | relative viability ([1]; 0.06325 µM): 0.972 | relative viability ([1]; 0.2 µM): 0.912 | relative viability ([1]; 0.6325 µM): 0.92 | relative viability ([1]; 2 µM): 0.885 | relative viability (SGI-1776; 0.08 µM): 1.05 | relative viability (SGI-1776; 0.8 µM): 1.06 | relative viability (SGI-1776; 2.53 µM): 0.973 | relative viability (SGI-1776; 8 µM): 0.87 | relative viability ([2]; first compound 0.02 µM): 0.838 | relative viability ([2]; first compound 0.06325 µM): 0.924 | relative viability ([2]; first compound 0.2 µM): 0.853 | relative viability ([2]; first compound 0.6325 µM): 0.789 | relative viability ([2]; first compound 2 µM): 0.725

LCLC-97TM1
relative viability (Entinostat; 0.02 µM): 1.1 | relative viability (Entinostat; 0.06325 µM): 1.11 | relative viability (Entinostat; 0.2 µM): 1.02 | relative viability (Entinostat; 0.6325 µM): 0.732 | relative viability (Entinostat; 2 µM): 0.702 | relative viability ([1]; 0.02 µM): 1.03 | relative viability ([1]; 0.06325 µM): 0.99 | relative viability ([1]; 0.2 µM): 0.994 | relative viability ([1]; 0.6325 µM): 1.1 | relative viability ([1]; 2 µM): 0.905 | relative viability (SGI-1776; 0.08 µM): 1.01 | relative viability (SGI-1776; 0.8 µM): 1.03 | relative viability (SGI-1776; 2.53 µM): 1.11 | relative viability (SGI-1776; 8 µM): 1.01 | relative viability ([2]; first compound 0.02 µM): 0.187 | relative viability ([2]; first compound 0.06325 µM): 0.205 | relative viability ([2]; first compound 0.2 µM): 0.204 | relative viability ([2]; first compound 0.6325 µM): 0.169 | relative viability ([2]; first compound 2 µM): 0.134

LK-2
relative viability (Entinostat; 0.02 µM): 1.04 | relative viability (Entinostat; 0.06325 µM): 1.03 | relative viability (Entinostat; 0.2 µM): 0.868 | relative viability (Entinostat; 0.6325 µM): 0.652 | relative viability (Entinostat; 2 µM): 0.349 | relative viability ([1]; 0.02 µM): 0.998 | relative viability ([1]; 0.06325 µM): 1.08 | relative viability ([1]; 0.2 µM): 1.09 | relative viability ([1]; 0.6325 µM): 0.757 | relative viability ([1]; 2 µM): 0.585 | relative viability (SGI-1776; 0.08 µM): 1.09 | relative viability (SGI-1776; 0.8 µM): 1.03 | relative viability (SGI-1776; 2.53 µM): 1.03 | relative viability (SGI-1776; 8 µM): 0.77 | relative viability ([2]; first compound 0.02 µM): 0.787 | relative viability ([2]; first compound 0.06325 µM): 0.798 | relative viability ([2]; first compound 0.2 µM): 0.637 | relative viability ([2]; first compound 0.6325 µM): 0.583 | relative viability ([2]; first compound 2 µM): 0.426

NCI-H3122
relative viability (Entinostat; 0.02 µM): 1 | relative viability (Entinostat; 0.06325 µM): 1.03 | relative viability (Entinostat; 0.2 µM): 1.02 | relative viability (Entinostat; 0.6325 µM): 0.959 | relative viability (Entinostat; 2 µM): 0.677 | relative viability ([1]; 0.02 µM): 1.03 | relative viability ([1]; 0.06325 µM): 1.01 | relative viability ([1]; 0.2 µM): 1.01 | relative viability ([1]; 0.6325 µM): 1.05 | relative viability ([1]; 2 µM): 0.862 | relative viability (SGI-1776; 0.08 µM): 1.03 | relative viability (SGI-1776; 0.8 µM): 0.99 | relative viability (SGI-1776; 2.53 µM): 1.04 | relative viability (SGI-1776; 8 µM): 1.05 | relative viability ([2]; first compound 0.02 µM): 0.275 | relative viability ([2]; first compound 0.06325 µM): 0.249 | relative viability ([2]; first compound 0.2 µM): 0.233 | relative viability ([2]; first compound 0.6325 µM): 0.229 | relative viability ([2]; first compound 2 µM): 0.175

NCI-H2126
relative viability (Entinostat; 0.02 µM): 1.04 | relative viability (Entinostat; 0.06325 µM): 1.06 | relative viability (Entinostat; 0.2 µM): 0.951 | relative viability (Entinostat; 0.6325 µM): 0.618 | relative viability (Entinostat; 2 µM): 0.503 | relative viability ([1]; 0.02 µM): 0.985 | relative viability ([1]; 0.06325 µM): 0.981 | relative viability ([1]; 0.2 µM): 1.01 | relative viability ([1]; 0.6325 µM): 1.01 | relative viability ([1]; 2 µM): 0.745 | relative viability (SGI-1776; 0.08 µM): 0.967 | relative viability (SGI-1776; 0.8 µM): 1.06 | relative viability (SGI-1776; 2.53 µM): 0.983 | relative viability (SGI-1776; 8 µM): 0.91 | relative viability ([2]; first compound 0.02 µM): 0.592 | relative viability ([2]; first compound 0.06325 µM): 0.569 | relative viability ([2]; first compound 0.2 µM): 0.618 | relative viability ([2]; first compound 0.6325 µM): 0.547 | relative viability ([2]; first compound 2 µM): 0.45

NCI-H520
relative viability (Entinostat; 0.02 µM): 1 | relative viability (Entinostat; 0.06325 µM): 1.07 | relative viability (Entinostat; 0.2 µM): 0.934 | relative viability (Entinostat; 0.6325 µM): 0.9 | relative viability (Entinostat; 2 µM): 0.792 | relative viability ([1]; 0.02 µM): 0.857 | relative viability ([1]; 0.06325 µM): 1.12 | relative viability ([1]; 0.2 µM): 1.05 | relative viability ([1]; 0.6325 µM): 0.921 | relative viability ([1]; 2 µM): 0.659 | relative viability (SGI-1776; 0.08 µM): 0.998 | relative viability (SGI-1776; 0.8 µM): 1.18 | relative viability (SGI-1776; 2.53 µM): 1 | relative viability (SGI-1776; 8 µM): 0.832 | relative viability ([2]; first compound 0.02 µM): 0.493 | relative viability ([2]; first compound 0.06325 µM): 0.806 | relative viability ([2]; first compound 0.2 µM): 0.758 | relative viability ([2]; first compound 0.6325 µM): 0.528 | relative viability ([2]; first compound 2 µM): 0.494

LU99A
relative viability (Entinostat; 0.02 µM): 0.918 | relative viability (Entinostat; 0.06325 µM): 0.93 | relative viability (Entinostat; 0.2 µM): 0.871 | relative viability (Entinostat; 0.6325 µM): 0.69 | relative viability (Entinostat; 2 µM): 0.603 | relative viability ([1]; 0.02 µM): 0.966 | relative viability ([1]; 0.06325 µM): 0.956 | relative viability ([1]; 0.2 µM): 0.859 | relative viability ([1]; 0.6325 µM): 0.777 | relative viability ([1]; 2 µM): 0.564 | relative viability (SGI-1776; 0.08 µM): 0.948 | relative viability (SGI-1776; 0.8 µM): 1.03 | relative viability (SGI-1776; 2.53 µM): 0.964 | relative viability (SGI-1776; 8 µM): 0.861 | relative viability ([2]; first compound 0.02 µM): 0.592 | relative viability ([2]; first compound 0.06325 µM): 0.576 | relative viability ([2]; first compound 0.2 µM): 0.547 | relative viability ([2]; first compound 0.6325 µM): 0.452 | relative viability ([2]; first compound 2 µM): 0.389

NCI-H1666
relative viability (Entinostat; 0.02 µM): 1.1 | relative viability (Entinostat; 0.06325 µM): 1.05 | relative viability (Entinostat; 0.2 µM): 1.08 | relative viability (Entinostat; 0.6325 µM): 0.799 | relative viability (Entinostat; 2 µM): 0.514 | relative viability ([1]; 0.02 µM): 1.08 | relative viability ([1]; 0.06325 µM): 0.994 | relative viability ([1]; 0.2 µM): 0.975 | relative viability ([1]; 0.6325 µM): 0.826 | relative viability ([1]; 2 µM): 0.764 | relative viability (SGI-1776; 0.08 µM): 0.98 | relative viability (SGI-1776; 0.8 µM): 1.02 | relative viability (SGI-1776; 2.53 µM): 0.98 | relative viability (SGI-1776; 8 µM): 0.899 | relative viability ([2]; first compound 0.02 µM): 1.04 | relative viability ([2]; first compound 0.06325 µM): 0.865 | relative viability ([2]; first compound 0.2 µM): 0.753 | relative viability ([2]; first compound 0.6325 µM): 0.751 | relative viability ([2]; first compound 2 µM): 0.694

NCI-H460
relative viability (Entinostat; 0.02 µM): 1.02 | relative viability (Entinostat; 0.06325 µM): 0.986 | relative viability (Entinostat; 0.2 µM): 0.842 | relative viability (Entinostat; 0.6325 µM): 0.307 | relative viability (Entinostat; 2 µM): 0.0693 | relative viability ([1]; 0.02 µM): 1.05 | relative viability ([1]; 0.06325 µM): 1.09 | relative viability ([1]; 0.2 µM): 0.974 | relative viability ([1]; 0.6325 µM): 1.03 | relative viability ([1]; 2 µM): 0.477 | relative viability (SGI-1776; 0.08 µM): 1.01 | relative viability (SGI-1776; 0.8 µM): 0.994 | relative viability (SGI-1776; 2.53 µM): 0.988 | relative viability (SGI-1776; 8 µM): 0.947 | relative viability ([2]; first compound 0.02 µM): 0.166 | relative viability ([2]; first compound 0.06325 µM): 0.263 | relative viability ([2]; first compound 0.2 µM): 0.142 | relative viability ([2]; first compound 0.6325 µM): 0.133 | relative viability ([2]; first compound 2 µM): 0.0197
